ChEMBL document CHEMBL3045495, “Lipophilic 2-(4-chlorophenyl)-4-thiazolyl-1,4-dihydropyridines: synthesis, calcium channel antagonist activity, and protection against pentylenetetrazole-induced seizure” (Med Chem Res, 2009)

Columns and labels:
[1] = molecular target: Voltage-dependent L-type calcium channel subunit alpha-1C (Cavia porcellus, UniProt O35505); assay: Antagonist activity at Calcium channel in Cavia porcellus (guinea pig) ileal smooth muscle assessed as inhibition of 40 mM KCl-induced contraction compound pretreated for 15 min before KCl treatment
Sequence of Voltage-dependent L-type calcium channel subunit alpha-1C (O35505 whole entry): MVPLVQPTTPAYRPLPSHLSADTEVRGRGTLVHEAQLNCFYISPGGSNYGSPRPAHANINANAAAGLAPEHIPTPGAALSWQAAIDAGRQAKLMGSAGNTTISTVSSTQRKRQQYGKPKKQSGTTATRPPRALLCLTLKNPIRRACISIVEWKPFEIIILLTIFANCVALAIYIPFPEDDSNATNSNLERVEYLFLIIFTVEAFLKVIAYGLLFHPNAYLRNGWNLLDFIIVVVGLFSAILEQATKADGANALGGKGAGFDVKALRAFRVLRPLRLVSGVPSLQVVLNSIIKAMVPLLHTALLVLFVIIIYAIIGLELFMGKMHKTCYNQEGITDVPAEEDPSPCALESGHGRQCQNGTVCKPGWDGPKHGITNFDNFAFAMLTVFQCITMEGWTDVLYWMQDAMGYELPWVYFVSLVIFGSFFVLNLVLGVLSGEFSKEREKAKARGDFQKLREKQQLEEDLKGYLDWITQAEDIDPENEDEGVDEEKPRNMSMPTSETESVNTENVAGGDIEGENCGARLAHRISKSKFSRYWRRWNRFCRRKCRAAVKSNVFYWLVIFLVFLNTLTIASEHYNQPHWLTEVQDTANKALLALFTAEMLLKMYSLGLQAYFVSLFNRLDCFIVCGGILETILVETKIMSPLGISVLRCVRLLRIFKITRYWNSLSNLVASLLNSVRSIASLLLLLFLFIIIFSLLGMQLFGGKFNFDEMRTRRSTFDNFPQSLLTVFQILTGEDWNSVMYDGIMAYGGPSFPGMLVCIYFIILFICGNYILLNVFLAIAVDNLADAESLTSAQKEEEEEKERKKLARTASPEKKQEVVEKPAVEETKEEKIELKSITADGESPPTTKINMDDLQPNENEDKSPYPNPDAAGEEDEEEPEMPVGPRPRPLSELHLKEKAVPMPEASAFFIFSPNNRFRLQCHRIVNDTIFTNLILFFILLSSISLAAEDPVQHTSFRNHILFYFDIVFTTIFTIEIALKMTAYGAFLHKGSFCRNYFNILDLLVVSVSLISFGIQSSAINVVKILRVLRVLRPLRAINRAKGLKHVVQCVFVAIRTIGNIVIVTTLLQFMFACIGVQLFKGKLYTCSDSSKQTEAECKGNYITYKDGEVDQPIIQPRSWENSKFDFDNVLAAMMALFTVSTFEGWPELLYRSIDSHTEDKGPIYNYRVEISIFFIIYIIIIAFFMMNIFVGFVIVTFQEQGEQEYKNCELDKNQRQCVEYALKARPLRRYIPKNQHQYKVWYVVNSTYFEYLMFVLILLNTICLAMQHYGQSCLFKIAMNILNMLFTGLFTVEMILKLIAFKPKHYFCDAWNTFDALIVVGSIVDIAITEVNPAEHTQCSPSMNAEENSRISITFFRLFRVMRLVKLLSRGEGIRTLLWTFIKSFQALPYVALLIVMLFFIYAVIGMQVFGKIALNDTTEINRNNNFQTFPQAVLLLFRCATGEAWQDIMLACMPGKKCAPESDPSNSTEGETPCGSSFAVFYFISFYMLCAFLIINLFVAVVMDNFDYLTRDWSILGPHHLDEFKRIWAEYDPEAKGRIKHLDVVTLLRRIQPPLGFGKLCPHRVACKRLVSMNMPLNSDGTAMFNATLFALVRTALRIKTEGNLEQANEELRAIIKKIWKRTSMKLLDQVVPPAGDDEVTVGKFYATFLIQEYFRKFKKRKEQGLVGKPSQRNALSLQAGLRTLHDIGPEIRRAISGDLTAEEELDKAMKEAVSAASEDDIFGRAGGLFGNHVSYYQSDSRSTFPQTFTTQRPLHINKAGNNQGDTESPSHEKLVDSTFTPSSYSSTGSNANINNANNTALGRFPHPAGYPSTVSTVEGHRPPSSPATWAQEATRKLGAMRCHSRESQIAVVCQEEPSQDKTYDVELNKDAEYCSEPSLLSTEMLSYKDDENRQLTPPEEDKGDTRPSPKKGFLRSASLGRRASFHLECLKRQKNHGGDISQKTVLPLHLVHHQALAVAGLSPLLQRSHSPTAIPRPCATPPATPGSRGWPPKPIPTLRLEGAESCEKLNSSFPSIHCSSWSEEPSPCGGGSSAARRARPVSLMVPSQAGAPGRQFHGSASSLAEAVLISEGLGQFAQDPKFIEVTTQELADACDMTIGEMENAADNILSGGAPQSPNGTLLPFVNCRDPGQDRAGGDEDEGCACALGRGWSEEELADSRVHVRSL

Mus musculus [2] = assay: Anticonvulsant activity against pentylenetetrazole-induced seizures in Mus musculus NMRI (mouse) assessed as time of maximal effect at 20 mg/kg, ip administered 30 min before PTZ challenge; assay type: functional; settings: route intraperitoneal
Mus musculus [3] = assay: Anticonvulsant activity against pentylenetetrazole-induced seizures in Mus musculus NMRI (mouse) assessed as time of maximal effect at 10 mg/kg, ip administered 30 min before PTZ challenge (reference value: 24.86 +/- 0.96 min); assay type: functional; settings: route intraperitoneal
Mus musculus [4] = assay: Anticonvulsant activity against pentylenetetrazole-induced seizures in Mus musculus NMRI (mouse) assessed as time of maximal effect at 5 mg/kg, ip administered 30 min before PTZ challenge; assay type: functional; settings: route intraperitoneal
Mus musculus [5] = assay: Anticonvulsant activity against pentylenetetrazole-induced seizures in Mus musculus NMRI (mouse) assessed as time of maximal effect at 20 mg/kg, ip administered 15 min before PTZ challenge; assay type: functional; settings: route intraperitoneal
Mus musculus [6] = assay: Anticonvulsant activity against pentylenetetrazole-induced seizures in Mus musculus NMRI (mouse) assessed as time of maximal effect at 10 mg/kg, ip administered 15 min before PTZ challenge (reference value: 24.86 +/- 0.96 min); assay type: functional; settings: route intraperitoneal
Mus musculus [7] = assay: Anticonvulsant activity against pentylenetetrazole-induced seizures in Mus musculus NMRI (mouse) assessed as time of maximal effect at 5 mg/kg, ip administered 15 min before PTZ challenge; assay type: functional; settings: route intraperitoneal
Mus musculus [8] = assay: Anticonvulsant activity against pentylenetetrazole-induced seizures in Mus musculus NMRI (mouse) assessed as time of maximal effect at 20 mg/kg, ip administered 60 min before PTZ challenge; assay type: functional; settings: route intraperitoneal
Mus musculus [9] = assay: Anticonvulsant activity against pentylenetetrazole-induced seizures in Mus musculus NMRI (mouse) assessed as time of maximal effect at 60 mg/kg, ip administered 15 min before PTZ challenge (reference value: 24.86 +/- 0.96 min); assay type: functional; settings: route intraperitoneal
Mus musculus [10] = assay: Anticonvulsant activity against pentylenetetrazole-induced seizures in Mus musculus NMRI (mouse) assessed as time of maximal effect at 5 mg/kg, ip administered 60 min before PTZ challenge; assay type: functional; settings: route intraperitoneal

SMILES	IC50 [1]	Time (Mus musculus [2])	Time (Mus musculus [3])	Time (Mus musculus [4])	other results
COC(=O)C1=C(C)NC(C)=C(C(=O)OC(C)C)C1c1csc(-c2ccc(Cl)cc2)n1 (centres undefined)	13.6 µM				
COC(=O)C1=C(C)NC(C)=C(C(=O)OC2CCCC2)C1c1csc(-c2ccc(Cl)cc2)n1 (centres undefined)	7.29 µM	42.7 min	34.42 min	33.22 min	
COC(=O)C1=C(C)NC(C)=C(C(=O)OC)C1c1csc(-c2ccc(Cl)cc2)n1	4.43 µM	44.3 min	40.94 min	39.05 min	
CC1=C(C(=O)OC(C)c2ccccc2)C(c2csc(-c3ccc(Cl)cc3)n2)C(C(=O)OC(C)c2ccccc2)=C(C)N1 (centres undefined)	400 µM				
CCOC(=O)C1=C(C)NC(C)=C(C(=O)OC)C1c1csc(-c2ccc(Cl)cc2)n1 (centres undefined)	22 µM				
CCOC(=O)C1=C(C)NC(C)=C(C(=O)OCCc2ccccc2)C1c1csc(-c2ccc(Cl)cc2)n1 (centres undefined)	12.1 µM				
CCOC(=O)C1=C(C)NC(C)=C(C(=O)OC2CCCCC2)C1c1csc(-c2ccc(Cl)cc2)n1 (centres undefined)	100 µM				
CCOC(=O)C1=C(C)NC(C)=C(C(=O)OCC)C1c1csc(-c2ccc(Cl)cc2)n1	3.65 µM	39.07 min	32.64 min	27.76 min	
CC1=C(C(=O)OCc2ccccc2)C(c2csc(-c3ccc(Cl)cc3)n2)C(C(=O)OCc2ccccc2)=C(C)N1	11 µM				
COC(=O)C1=C(C)NC(C)=C(C(=O)OCc2ccccc2)C1c1csc(-c2ccc(Cl)cc2)n1 (centres undefined)	64.9 µM				
COC(=O)C1=C(C)NC(C)=C(C(=O)OC)C1c1ccccc1[N+](=O)[O-] [NIFEDIPINE]		48.3 min	43.88 min	40.66 min	
CC1=C(C(=O)OC2CCCC2)C(c2csc(-c3ccc(Cl)cc3)n2)C(C(=O)OC2CCCC2)=C(C)N1	19 µM				
CCCOC(=O)C1=C(C)NC(C)=C(C(=O)OCCC)C1c1csc(-c2ccc(Cl)cc2)n1	4.8 µM	42.05 min	36.26 min	34.75 min	
CCOC(=O)C1=C(C)NC(C)=C(C(=O)OC(C)(C)C)C1c1csc(-c2ccc(Cl)cc2)n1 (centres undefined)	91 µM				
CC1=C(C(=O)OC2CCCCC2)C(c2csc(-c3ccc(Cl)cc3)n2)C(C(=O)OC2CCCCC2)=C(C)N1	11 µM				Time (Mus musculus [5]): 37.86 min; Time (Mus musculus [6]): 35.59 min; Time (Mus musculus [7]): 35.65 min
CCCOC(=O)C1=C(C)NC(C)=C(C(=O)OCC)C1c1csc(-c2ccc(Cl)cc2)n1 (centres undefined)	4.09 µM				Time (Mus musculus [8]): 42.32 min; Time (Mus musculus [9]): 37.07 min; Time (Mus musculus [10]): 34.5 min

SMILES	IC50 [1]	Time (Mus musculus [2])	Time (Mus musculus [3])	Time (Mus musculus [4])	other results
CCOC(=O)C1=C(C)NC(C)=C(C(=O)OCC(C)C)C1c1csc(-c2ccc(Cl)cc2)n1 (centres undefined)	15.4 µM				
CCOC(=O)C1=C(C)NC(C)=C(C(=O)OC(C)C)C1c1csc(-c2ccc(Cl)cc2)n1 (centres undefined)	2.55 µM	44.64 min	35.87 min	34.2 min	
CCOC(=O)C1=C(C)NC(C)=C(C(=O)OCc2ccccc2)C1c1csc(-c2ccc(Cl)cc2)n1 (centres undefined)	3.29 µM				Time (Mus musculus [8]): 39.6 min; Time (Mus musculus [9]): 37.82 min; Time (Mus musculus [10]): 33.87 min
CC1=C(C(=O)OC(C)(C)C)C(c2csc(-c3ccc(Cl)cc3)n2)C(C(=O)OC(C)(C)C)=C(C)N1	21 µM				
CCCOC(=O)C1=C(C)NC(C)=C(C(=O)OC)C1c1csc(-c2ccc(Cl)cc2)n1 (centres undefined)	5.92 µM	43.8 min	37.6 min	31.7 min	
CC1=C(C(=O)OCCc2ccccc2)C(c2csc(-c3ccc(Cl)cc3)n2)C(C(=O)OCCc2ccccc2)=C(C)N1	500 µM				
CCOC(=O)C1=C(C)NC(C)=C(C(=O)OC(C)c2ccccc2)C1c1csc(-c2ccc(Cl)cc2)n1 (centres undefined)	13.8 µM				
COC(=O)C1=C(C)NC(C)=C(C(=O)OCCc2ccccc2)C1c1csc(-c2ccc(Cl)cc2)n1 (centres undefined)	10.2 µM				
COC(=O)C1=C(C)NC(C)=C(C(=O)OCC(C)C)C1c1csc(-c2ccc(Cl)cc2)n1 (centres undefined)	46.9 µM				
CC1=C(C(=O)OC(C)C)C(c2csc(-c3ccc(Cl)cc3)n2)C(C(=O)OC(C)C)=C(C)N1	37.2 µM				
CC1=C(C(=O)OCC(C)C)C(c2csc(-c3ccc(Cl)cc3)n2)C(C(=O)OCC(C)C)=C(C)N1	24.9 µM	47.62 min	39.32 min	37.5 min	
COC(=O)C1=C(C)NC(C)=C(C(=O)OC(C)(C)C)C1c1csc(-c2ccc(Cl)cc2)n1 (centres undefined)	46 µM				
COC(=O)C1=C(C)NC(C)=C(C(=O)OC2CCCCC2)C1c1csc(-c2ccc(Cl)cc2)n1 (centres undefined)	71.9 µM				
CCOC(=O)C1=C(C)NC(C)=C(C(=O)OC2CCCC2)C1c1csc(-c2ccc(Cl)cc2)n1 (centres undefined)	8.38 µM	47.8 min	38.8 min	39.6 min	
COC(=O)C1=C(C)NC(C)=C(C(=O)OC(C)c2ccccc2)C1c1csc(-c2ccc(Cl)cc2)n1 (centres undefined)	7.62 µM	43.06 min	42.1 min	27.82 min	
